Test results taken from PubChem BioAssay AID686957 (The Scripps Research Institute Molecular Screening Center, 2013).
Activity calls are given as the source filed them. The rule behind the calls is not given here.

These molecules were tested against T-cell receptor (TCR)-CD3 interaction, human (TCR alpha chain TRAV4) (assay: IC50 for blocking TCR-CD3 binding – biochemical, fluorescence, TAMRA-labeled TCR probe, dose response (AID 686957)).

For `O=C(NNC(=O)c1ccc2ccccc2c1O)c1ccccc1Cl`, which IC50 is on record?
Its IC50 is > 94.1 µM (inactive).

For `CC1CCN(S(=O)(=O)c2ccc(NC(=O)Cn3nnc(-c4ccccc4F)n3)cc2)CC1`, which IC50 is on record?
The IC50 was “inactive”.

Which IC50 does the source give for `COc1cccc(OCC(=O)NNC(=O)c2ccc3ccccc3c2O)c1` here?
The IC50 was > 94.1 µM (inactive).

`O=C(N/N=C/c1ccc(F)cc1)c1cc(-c2ccco2)nc2ccccc12` was tested. Which IC50 did it give?
The IC50 was > 94.1 µM (inactive).

`CCn1c(SCC(=O)c2ccc(O)c(O)c2)nnc1-c1ccccc1OC` was tested. Which IC50 did it give?
Its IC50 is > 94.1 µM (inactive).

For `COc1ccc(C(=O)Nc2nnc(CC(=O)N/N=C/c3ccc(O)cc3O)s2)cc1`, which IC50 is on record?
Its IC50 is > 94.1 µM (inactive).

How did the IC50 turn out when `O=c1cc(-c2ccc(O)cc2)oc2c(O)c(O)c(O)c(O)c12` was run?
The IC50 was > 94.2 µM (inactive).

How did the IC50 turn out when `O=C(CP(=O)(c1ccccc1)c1ccccc1)N/N=C/c1cc(Br)cc(Br)c1O` was run?
Its IC50 is > 94.2 µM (inactive).

How did the IC50 turn out when `O=C(NC(=S)NNC(=O)c1ccccc1O)c1cccnc1` was run?
Its IC50 is > 94.1 µM (inactive).

`C=CCNC(=S)NNC(=O)c1cccn(Cc2cccc(Cl)c2)c1=O` was tested. Which IC50 did it give?
Its IC50 is > 94.1 µM (inactive).

For `COc1ccc(C)cc1NC(=O)NNC(=O)c1cc2ccccc2cc1O`, which IC50 is on record?
The IC50 was > 94.1 µM (inactive).

How did the IC50 turn out when `O=C1C(=Cc2cn(-c3ccccc3)nc2-c2ccc(OCc3ccccc3)cc2)SC(=S)N1CCS(=O)(=O)O` was run?
The IC50 was > 94.2 µM (inactive).

For `CC1CCCC(C)N1/N=C/c1ccc(O)c(O)c1` (configuration not stated), which IC50 is on record?
The IC50 was > 94.1 µM (inactive).

How did the IC50 turn out when `Cc1cc(C(=O)N/N=C/c2cc(Cl)cc([N+](=O)[O-])c2O)n[nH]1` was run?
Its IC50 is > 94.1 µM (inactive).

`COc1cc2ccccc2cc1C(=O)NNC(=O)c1ccccc1O` was tested. Which IC50 did it give?
Its IC50 is > 94.2 µM (inactive).

Which IC50 does the source give for `C/C(=N\NC(=O)c1nnn(-c2nonc2N)c1-c1ccccc1)c1ccccc1O` here?
The IC50 was > 94.1 µM (inactive).

With `O=c1oc2ccccc2c2oc3cc(O)c(O)cc3c12` as the molecule, how does the IC50 read?
Its IC50 is > 94.2 µM (inactive).

How did the IC50 turn out when `Cc1ccc(S(=O)(=O)N2CCC(C(=O)NNC(=O)c3ccccc3O)CC2)cc1C` was run?
The IC50 was > 94.1 µM (inactive).

How did the IC50 turn out when `O=C(N/N=C/c1cc([N+](=O)[O-])ccc1O)c1cccc(N2CCCC2=O)c1` was run?
Its IC50 is > 94.1 µM (inactive).

With `COC(=O)Nc1ccc(S(=O)(=O)NNC(=O)c2c(O)c3ccccc3[nH]c2=O)cc1` as the molecule, how does the IC50 read?
Its IC50 is > 94.1 µM (inactive).

How did the IC50 turn out when `Cc1ccc(-c2[nH]c3cc(C(=O)NCCCn4ccnc4)ccc3c(=O)c2O)cc1` was run?
Its IC50 is “inactive”.

Which IC50 does the source give for `O=C(CCl)NNC(=O)c1c(O)c2ccccc2[nH]c1=O` here?
Its IC50 is > 94 µM (inactive).

For `COc1cc(/C=N/NC(=O)c2cc(O)cc(O)c2)ccc1OC(=O)c1ccccc1`, which IC50 is on record?
The IC50 was > 94.1 µM (inactive).

Which IC50 does the source give for `Cc1cc([N+](=O)[O-])cc(/C=N\NC(=O)C2COc3ccccc3O2)c1O` (configuration not stated) here?
The IC50 was > 94.2 µM (inactive).

`Cc1ccc(/C=C2\SC(=S)N(CCC(=O)NNC(=O)c3ccccc3O)C2=O)cc1` was tested. Which IC50 did it give?
Its IC50 is > 94.1 µM (inactive).

`NC(=O)CCC1NC(=S)N(Cc2ccccc2)C1=O` (configuration not stated) was tested. Which IC50 did it give?
The IC50 was > 94.1 µM (inactive).

`CN(CCC#N)C(=O)COC(=O)c1c2c(nc3ccccc13)/C(=C\c1ccco1)CC2` was tested. Which IC50 did it give?
Its IC50 is > 94.1 µM (inactive).

`COc1ccc(NC(=O)NNC(=O)c2cc3ccccc3cc2O)cc1` was tested. Which IC50 did it give?
Its IC50 is > 94.1 µM (inactive).

How did the IC50 turn out when `O=C(NNC(=S)NC(=O)c1cccnc1)c1ccc(F)cc1` was run?
Its IC50 is > 94.1 µM (inactive).

Which IC50 does the source give for `Cc1cc(C(=O)N/N=C/c2cc(Br)cc([N+](=O)[O-])c2O)c2ccccc2n1` here?
The IC50 was > 94.1 µM (inactive).

With `CCCCCC(=O)NC(=S)NC1C2CC3CC(C2)CC1C3` (configuration not stated) as the molecule, how does the IC50 read?
The IC50 was > 94.1 µM (inactive).

`O=C(N/N=C/c1cccnc1)c1cc(O)c(O)c(O)c1` was tested. Which IC50 did it give?
Its IC50 is > 94 µM (inactive).

With `CCC1=NN(C(=O)c2cccc([N+](=O)[O-])c2)C(O)(c2ccc(C)cc2)C1` (configuration not stated) as the molecule, how does the IC50 read?
The IC50 was > 94.1 µM (inactive).

Which IC50 does the source give for `O=C(N/N=C/c1c(O)n(CCc2ccccc2)c(=O)[nH]c1=O)c1ccccc1O` here?
Its IC50 is > 94 µM (inactive).

Which IC50 does the source give for `O=C(N/N=C/c1cc(Cl)cc([N+](=O)[O-])c1O)c1cccc(S(=O)(=O)N2CCOCC2)c1` here?
Its IC50 is > 94.1 µM (inactive).

`O=C(CSc1nnc(-c2ccccc2O)n1Cc1ccccc1)NNC(=O)c1ccccc1O` was tested. Which IC50 did it give?
The IC50 was > 94.1 µM (inactive).

`O=C(NNC(=O)c1c(O)c2ccccc2[nH]c1=O)c1ccccc1` was tested. Which IC50 did it give?
The IC50 was > 94.1 µM (inactive).

Which IC50 does the source give for `NS(=O)(=O)c1ccc(NC(=O)c2cccc(N3C(=O)c4ccccc4C3=O)c2)cc1` here?
Its IC50 is > 94.1 µM (inactive).

With `Cc1cc(Br)cc(/C=N/NC(=O)c2ccc3c(c2)OCO3)c1O` as the molecule, how does the IC50 read?
Its IC50 is > 94.1 µM (inactive).

How did the IC50 turn out when `Oc1ccc(/C=N/N=C/c2ccc(O)c(O)c2)cc1O` was run?
Its IC50 is 2.24 µM.

With `COc1ccc(/C=C2\SC(=O)N(CC(=O)NNC(=O)c3ccccc3O)C2=O)cc1OC` as the molecule, how does the IC50 read?
The IC50 was > 94.1 µM (inactive).

Which IC50 does the source give for `C=CCn1c(O)c(N=NC(=O)CNC(=O)/C=C/c2ccco2)c2ccccc21` here?
The IC50 was > 94.1 µM (inactive).

With `CCOC(=O)C1=C(CC)Nc2ccccc2N=C1NC(=O)Nc1ccc(Cl)c(Cl)c1` as the molecule, how does the IC50 read?
The IC50 was “inactive”.

`NNC(=O)c1nc[nH]c1C(=O)Nc1ccccn1` was tested. Which IC50 did it give?
Its IC50 is > 94.2 µM (inactive).

How did the IC50 turn out when `CCOc1ccc(NC(=O)NNC(=O)c2ccc3ccccc3c2O)cc1` was run?
Its IC50 is > 94.1 µM (inactive).

With `O=C(CSc1nc2ccccc2s1)N/N=C/c1cc([N+](=O)[O-])ccc1O` as the molecule, how does the IC50 read?
Its IC50 is > 94.1 µM (inactive).

Which IC50 does the source give for `O=C(CCN1C(=O)/C(=C\c2ccccc2)SC1=S)NNC(=O)c1ccccc1O` here?
Its IC50 is > 94.1 µM (inactive).

For `O=C(NC(=S)NNC(=O)c1cccs1)c1ccccc1`, which IC50 is on record?
The IC50 was > 94.1 µM (inactive).

For `O=C(CCCN1C(=O)/C(=C/c2cccs2)SC1=S)NNC(=O)c1ccccc1O`, which IC50 is on record?
Its IC50 is > 94.1 µM (inactive).

How did the IC50 turn out when `O=C(CNC(=O)c1cccc(Br)c1)N/N=C/c1cc(Br)cc(Br)c1O` was run?
The IC50 was > 94.1 µM (inactive).

`O=C(CN1C(=O)S/C(=C\c2ccccc2)C1=O)NNC(=O)c1ccccc1O` was tested. Which IC50 did it give?
Its IC50 is > 94.1 µM (inactive).

`COc1ccc(C(=O)NNC(=S)NC(=O)c2cccc([N+](=O)[O-])c2)cc1` was tested. Which IC50 did it give?
Its IC50 is > 94.1 µM (inactive).

`O=Nc1[nH]c(=O)c(/C=C(\O)c2ccccc2)nc1NO` was tested. Which IC50 did it give?
The IC50 was > 94.2 µM (inactive).

For `C/C(=N\NC(=O)c1c(C)nc2ccccn12)c1ccc(O)cc1O`, which IC50 is on record?
Its IC50 is > 94.1 µM (inactive).

How did the IC50 turn out when `Cc1ccc(C(=O)NNC(=O)c2ccc3ccccc3c2O)cc1` was run?
The IC50 was > 94 µM (inactive).

With `COc1cccc(C(=O)NNC(=O)c2ccc3ccccc3c2O)c1` as the molecule, how does the IC50 read?
The IC50 was > 94.1 µM (inactive).

`CCCCCCn1c(=O)c(C(=O)Nc2ncccc2O)c(O)c2ccccc21` was tested. Which IC50 did it give?
Its IC50 is > 94.2 µM (inactive).

For `Cc1ccc(-n2c(O)c(/C=N/NC(=O)C3COc4ccccc4O3)c3ccccc3c2=O)cc1` (configuration not stated), which IC50 is on record?
Its IC50 is > 94.1 µM (inactive).

With `O=C(NNC(=O)c1ccc2ccccc2c1O)NC1CCCCC1` as the molecule, how does the IC50 read?
The IC50 was > 94.1 µM (inactive).

How did the IC50 turn out when `COc1ccc(-c2cnnn2-c2ccc(NC(=O)c3ccc(S(=O)(=O)N4CCCCC4)cc3)cc2)cc1OC` was run?
Its IC50 is “inactive”.

With `C/C(=N\NC(=O)c1nnn(-c2nonc2N)c1CN(C)c1ccccc1)c1ccccc1O` as the molecule, how does the IC50 read?
Its IC50 is > 94.1 µM (inactive).

Which IC50 does the source give for `CN(C(=O)COC(=O)c1cc(-c2ccco2)nc2ccccc12)C1CCS(=O)(=O)C1` (configuration not stated) here?
The IC50 was “inactive”.

Which IC50 does the source give for `COc1ccc(C(=O)NC(=S)NNC(=O)c2ccc(O)cc2)cc1[N+](=O)[O-]` here?
Its IC50 is > 94.1 µM (inactive).

How did the IC50 turn out when `COc1cc(OC)cc(C(=O)N/N=C/c2ccc(OC)c(COc3ccc4ccccc4c3)c2)c1` was run?
Its IC50 is > 94.1 µM (inactive).

For `O=C1COc2ccc(C(=O)COC(=O)/C=C/c3ccc(Br)o3)cc2N1`, which IC50 is on record?
The IC50 was > 94.1 µM (inactive).

Which IC50 does the source give for `COc1cc(O)c(/C=N/NC(=O)c2ccncc2)c(OC)c1[N+](=O)[O-]` here?
The IC50 was > 94.1 µM (inactive).

With `CC1(C)CC2CC(C)(CN2S(=O)(=O)c2ccc(C(=O)Nc3cccc(S(=O)(=O)N4CCOCC4)c3)cc2)C1` (configuration not stated) as the molecule, how does the IC50 read?
The IC50 was “inactive”.
